This assay addresses T1, histamine H-2 receptor (Oryctolagus cuniculus, UniProt G1TWL8).
T1 construct: The mixture of glands and cells is collected by centrifugation; from tissue; host or cells: dispersed gastric glands and cells (parietal cells) from gastric mucosa of New Zealand white rabbit
The assay is described as follows: aminopyrine test: inhibition of histamine-induced uptake of aminopyrine into the acid space of parietal cells. Type of assay: cell-based, New Zealand white rabbit. As to conditions: rabbit gastric mucosa glands/cells; uptake stimulated by histamine 10^-5 M and ICI 63197 5×10^-7 M; read-out: concentration giving 50% inhibition of uptake of aminopyrine. How it is done:
The aminopyrine test is carried out as follows:
Gastric mucosa from the New Zealand white rabbit is removed from the underlying muscle and washed in Buffer 1 which contains per liter: NaCl (8.007 g.), KCl (0.201 g.), Na2 HPO4 (0.113 g.), KH2 PO4 (0.204 g.), CaCl2.2H2 O (0.132 g.) MgCl2 (0.101 g.) and glucose (1 g.), adjusted to pH 7.4 with NaOH. The tissue is finely chopped, suspended in Buffer 1 and washed three times with Buffer 1. The tissue is then suspended in a dispersion medium of collagenase (Sigma Chemical Co., Type V; 100 mg.) and bovine serum albumin (Miles Laboratories Ltd., Fraction V; 100 mg.) in Buffer 1 (100 ml.) at 50 ml. per 10 g. net weight of tissue and incubated at 30° C. and pH 7.4 maintained by continuous monitoring, with stirring under an oxygen atmosphere. After 30 minutes the tissue is allowed to settle and the supernatant liquid is removed. Fresh dispersion medium (50 ml. per 10 g. wet weight of tissue) is added and incubation is continued with the tissue being largely dispersed into glands and whole cells after 40-60 minutes. Any remaining large pieces of tissue are removed by filtration through nylon mesh. […] The C^14 aminopyrine retained by the tissue is measured on a scintillation counter and the degree of inhibition of uptake by the test compound is calculated by reference to a control sample. […]

Where a name gives a salt, the structure may show the parent alone. Some results are limits rather than exact numbers.

T1 sequence (G1TWL8 1-367): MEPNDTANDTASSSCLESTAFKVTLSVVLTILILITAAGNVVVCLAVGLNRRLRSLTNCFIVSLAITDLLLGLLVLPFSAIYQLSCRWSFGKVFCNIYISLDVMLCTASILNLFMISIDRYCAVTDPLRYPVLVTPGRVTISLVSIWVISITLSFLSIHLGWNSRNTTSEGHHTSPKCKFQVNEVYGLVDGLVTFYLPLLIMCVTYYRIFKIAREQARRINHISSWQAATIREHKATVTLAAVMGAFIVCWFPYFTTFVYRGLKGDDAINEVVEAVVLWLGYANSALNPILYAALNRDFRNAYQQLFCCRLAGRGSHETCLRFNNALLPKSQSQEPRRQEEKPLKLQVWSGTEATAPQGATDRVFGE

Regarding `NC(=NCC(F)(F)F)Nc1nc(CSCCNc2n[s+]([O-])nc2N)cs1` (stereo not shown) [Example 1, 3-amino-4-[2-(2-[2,2,2-trifluoroethyl]guanidino)thiazol-4-ylmethylthio]ethylamino-1,2,5-thiadiazole 1-oxide maleate], the IC50 was less than 3 µM.

The record behind these values is patent US4746672A, “Oxides of 1,2,5-thiadiazoles, their use in pharmaceutical compositions” (ICI Americas Inc., priority 1982, dated 1988).
